Measurements reported in patent US10835470B2, “Cosmetics composition containing ginsenoside as active ingredient” (AMOREPACIFIC CORPORATION, priority 2015, dated 2020).

Experiments:
B16/F10 melanoma cells = assay: Inhibition of melanin production in B16/F10 melanoma cells; assay type: cell-based, mouse; conditions: 72 hours, concentration not given
Excerpt: The B16/F10 melanoma used in this test example is a cell line derived from a mouse and is a cancer cell caused by malignant alteration of a cell secreting a black pigment called melanin. The extent to which and melanin production was decreased by treating the test substance during artificial cultivation of this cell was compared and evaluated. The B16/F10 melanoma used in this test example was purchased from the Korean Cell Line Bank (KCLB No: 8008) and used. Measurement of melanin biosynthesis inhibitory effect of B16/F10 melanoma was carried out as follows. B16/F10 melanoma was dispensed in a 6-well plate (5×10^5/well) and cultured in DMEM (Dulbecco's Modified Eagle's Medium) containing 10% FBS (fetal bovine serum) for about 24 hours at 37° C. in a 5% CO2 incubator (MCO-20 AIC, Sanyo). The test substance was added to a new DMEM medium not containing FBS and allowed to stand for 72 hours. […] Absorbance was measured at 405 nm using an ELISA reader (DIbiotech, Korea). […] In comparison with the melanin content in the control group, the degree of inhibition of melanin production of each test substance was measured. […] Melanin production inhibition rate was calculated according to Mathematical Equation 2 below, and the results are shown in Table 4. Melanin production inhibition rate (%)=100−[{(Absorbance of test substance)/(Absorbance of control group)}×100] […]

[1] = tested on: tyrosinase enzyme extracted from mushrooms; assay: Tyrosinase inhibitory effect, absorbance at 475 nm; assay type: biochemical; conditions: mushroom tyrosinase, tyrosine substrate, 37° C., concentration of test substance not given
Protocol: The tyrosinase enzyme was extracted from mushrooms and obtained from Sigma (SIGMA). First, tyrosine as a substrate was dissolved in distilled water to prepare 0.3 mg/ml of a solution. The solution was placed by 1.0 ml in a test tube, and then 1.0 ml of potassium phosphate buffer solution (concentration 0.1 mol, PH 6.8) and 0.7 ml of distilled water were added to prepare a reaction solution.
0.2 ml of the test substance was placed in the reaction solution, and then the mixture was allowed to react in a thermostatic chamber at 37° C. for 10 minutes. At this time, as a negative control group (no addition), that obtained by adding 0.2 ml of only solvent in place of each test substance was prepared. As a positive control group, ascorbic acid was used. 2500 unit/ml of tyrosinase solution was added by 0.1 ml to the reaction solution, and the mixture was reacted again in a thermostatic chamber at 37° C. for 10 minutes. The test tube containing this reaction solution was placed in ice water and quenched to stop the reaction. Absorbance at a wavelength of 475 nm was measured with a photoelectron spectrometer. Each tyrosinase inhibitory effect was calculated by Mathematical Equation 1 below. The tests were conducted on ginsenoside Rd and compound O, respectively. Tyrosinase inhibition rate (%)=100−[{(Reaction absorbance of test substance)/(Reaction absorbance of negative control group)}×100] […]

[2] = tested on: keratinocytes (cell line: HaCaT); assay: Inhibition of UVB-induced reactive oxygen species (ROS) generation, DCF-DA fluorescence; assay type: cell-based
Protocol: 5×10^4 keratinocytes (cell line: HaCaT; obtained from: ATCC) was placed in each well of a 24-well plate and allowed to adhere for 24 hours. After 16 hours, ginsenoside Rd was treated with 1%. […] After 2 hours, the culture solution was removed, and 100 μl of phosphate buffer saline (PBS) was added to each well. The keratinocytes were irradiated with ultraviolet rays of 30 mJ/cm^2 using an ultraviolet B (UVB) lamp (Model: […], UV B 15 W, Sankyo Denki, Japan), and then PBS was taken out and 200 μl of keratinocyte culture solution was added to each well. Herein, ginsenoside Rd was again treated and the amount of reactive oxygen species increased by ultraviolet stimulation was determined for each fixed period of time. The amount of ROS was determined by referring to Tan's method for measuring the fluorescence of DCF-DA (dichlorofluorescin diacetate) oxidized by ROS (Tan et al., 1998, J. Cell Biol. Vol. 141, pp 1423-1432). The ginsenoside Rd was replaced with Compound O, and the test was carried out in the same process.

Aspergillus niger = assay: Antibacterial activity, MIC by two-fold dilution; assay type: cell-based; conditions: 25° C., 48 hours
Protocol: (§1) Antibacterial experiments were conducted to evaluate the antibacterial activity of ginsenoside Rd and Compound O. Specific experimental methods are as follows. The strains of Staphylococcus aureus, Escherichia coli and Pseudomonas aeruginosa used in the experiment were cultured in Trypticase Soy Broth, and the strains of Candida albicans, Aspergillus niger were cultured in Sabouraud Dextrose Broth medium. A diluted solution in which the culture solution is diluted 1/100 (Candida albicans strain 1/10) in each culture medium was used as a test strain solution. A spore suspension of Aspergillus niger (2×10^8 cfu/ml) was used as a test strain solution. A solution prepared by adding 0.15 ml of the test strain solution to 15 ml of each medium and thoroughly mixing the same was used as a diluted solution. 96 Deep well plate was placed by 16 μl ginsenoside Rd 10 ppm to 1 row and placed by 184 μl a diluted solution. The diluted solution was placed by 100 μl in the rest of the wells. The mixed solution of 1 row was thoroughly mixed and 100 μl was taken and placed in 2 row and thoroughly mixed. 100 μl was taken again and placed in 3 row. A two-fold dilution was carried out in this manner. Staphylococcus aureus, Escherichia coli and Pseudomonas aeruginosa were cultured in a thermostatic chamber at 32° C., and Candida albicans and Aspergillus niger were cultured in a thermostatic chamber at 25° C. After 48 hours, the growth of strains was checked by the degree of suspension and microscope, and the Minimum Inhibitory Concentration (MIC) value was determined. The ginsenoside Rd was replaced with Compound O, and the test was carried out in the same process.

Candida albicans = assay: Antibacterial activity, MIC by two-fold dilution; assay type: cell-based; conditions: 25° C., 48 hours
Protocol: as §1

Escherichia coli = assay: Antibacterial activity, MIC by two-fold dilution; assay type: cell-based; conditions: 32° C., 48 hours
Protocol: as §1

Pseudomonas aeruginosa = assay: Antibacterial activity, MIC by two-fold dilution; assay type: cell-based; conditions: 32° C., 48 hours
Protocol: as §1

Staphylococcus aureus = assay: Antibacterial activity, MIC by two-fold dilution; assay type: cell-based; conditions: 32° C., 48 hours
Protocol: as §1

Row | Structure (SMILES) | Melanin production inhibition rate (%) (B16/F10 melanoma cells) | Tyrosinase inhibition rate (%) [1] [%] | Amount of ROS, ratio to vehicle control ([2]; 0 hr after irradiation of UVB 30 mJ/cm^2, test substance treated with 1%) | Amount of ROS, ratio to vehicle control ([2]; 2 hr after irradiation of UVB 30 mJ/cm^2, test substance treated with 1%) | Amount of ROS, ratio to vehicle control ([2]; 3 hr after irradiation of UVB 30 mJ/cm^2, test substance treated with 1%) | Minimum Inhibitory Concentration (MIC) (Aspergillus niger) [%] | Minimum Inhibitory Concentration (MIC) (Candida albicans) [%] | Minimum Inhibitory Concentration (MIC) (Escherichia coli) [%] | Minimum Inhibitory Concentration (MIC) (Pseudomonas aeruginosa) [%] | Minimum Inhibitory Concentration (MIC) (Staphylococcus aureus) [%]
1 | O=c1cc(CO)occ1O [Kojic acid, reference compound] | 49 | – | – | – | – | – | – | – | – | –
2 | O=C1O[C@H]([C@@H](O)CO)C(O)=C1O [Ascorbic acid, reference compound] | – | 56 | – | – | – | – | – | – | – | –
3 | CC(C)=CCC[C@](C)(O[C@@H]1O[C@H](CO)[C@@H](O)[C@H](O)[C@H]1O)[C@H]1CC[C@]2(C)[C@@H]1[C@H](O)C[C@@H]1[C@@]3(C)CC[C@H](O[C@@H]4O[C@H](CO)[C@@H](O)[C@H](O)[C@H]4O[C@@H]4O[C@H](CO)[C@@H](O)[C@H](O)[C@H]4O)C(C)(C)[C@@H]3CC[C@]12C [Ginsenoside Rd] | 67 | 68 | 100 | 251 | 286 | >3 | >4 | 0.191 | 0.25 | 0.07
